This passage reports inhibition results from ChEMBL document CHEMBL5052847, “Identification of compounds that inhibit stress granule formation and tau aggregation by targeting tia1” (2021).

The species named for one assay is Homo sapiens. Briefly: Inhibition of recombinant TIA1 (unknown origin) multimerization measured by FRET assay.
The next assay concerns HT-22. Briefly: Inhibition of TIA1 endogenously expressed in mouse HT-22 cells at 25 to 100 uM assessed as sodium arsenite-induced stress granule formation and measured by FRET assay relative to control. The class given is cell-based. Particulars: dose 25-100 µM.

The source made the active and inactive calls. The rule behind the calls is not given here.

With `CCN(CC)S(=O)(=O)c1cccc(-n2sc3ccccc3c2=O)c1`, the inhibition entry in the assay filed under Homo sapiens and in the assay on HT-22 was “Active” throughout.
Take `CN(C)S(=O)(=O)c1cccc(-n2sc3ccccc3c2=O)c1`: the inhibition result in the assay filed under Homo sapiens and in the assay with HT-22 was “Active” throughout.
Take `Cc1ccc(C)c(-n2sc3cc(F)ccc3c2=O)c1`: the inhibition entry in the assay listed under Homo sapiens and in the assay with HT-22 was “Active” each time.
`O=C(O)c1ccccc1NS(=O)(=O)c1cccc(-n2sc3ccccc3c2=O)c1`: the inhibition result in the assay filed under Homo sapiens and with HT-22 was “Active” in each case.
With `O=c1c2ccccc2sn1-c1cccc(S(=O)(=O)N2CCCCCC2)c1`, the inhibition result in the assay filed under Homo sapiens and in the assay on HT-22 was “Active” each time.
With `O=c1c2ccccc2sn1-c1ccc(Cl)c(S(=O)(=O)N2CCOCC2)c1`, the inhibition result in the assay filed under Homo sapiens and with HT-22 was “Active” in each case.
`O=c1c2ccccc2sn1-c1cccc(S(=O)(=O)Nc2ccc(Cl)cc2)c1`: the inhibition entry in the assay listed under Homo sapiens and with HT-22 was “Active” throughout.
For `Cc1cccc(-n2sc3ccccc3c2=O)c1`, the inhibition result in the assay filed under Homo sapiens and in the assay on HT-22 was “Active” each time.
Consider `O=C1c2ccccc2S(=O)(=O)N1c1ccccc1F`, for which the inhibition entry in the assay listed under Homo sapiens and in the assay with HT-22 was “Active” each time.
For the compound `O=c1c2ccccc2sn1-c1nccs1`, the inhibition result in the assay filed under Homo sapiens and in the assay with HT-22 was “Active” each time.
Take `O=c1c2ccccc2sn1-c1ccc(Cl)cc1`: the inhibition result in the assay listed under Homo sapiens and in the assay on HT-22 was “Active” throughout.
